Key:
[1] = test system: α-glucosidase from Saccharomyces cerevisiae; assay: α-Glucosidase inhibition assay (pNPG substrate, absorbance at 405 nm); type: biochemical; details: for α-glucosidase inhibitory effect at a single concentration: at a concentration of 100 μM; for IC50: in vitro, PBS pH 7.0, 37 °C, triplicate, read-out: α-Glucosidase inhibitory activity IC50
Experimental: An […] were used to measure the circular dichroism (ECD) and the UV spectra, respectively. ECD and UV spectra were recorded at the range of 200–400 nm under N2 gas […]. IR spectra were recorded on a Shimadzu IR Affinity-1 spectrophotometer. All the NMR spectra were measured on a 600 MHz Bruker Avance-III HD spectrometer and the tetramethylsilane was used as an internal standard. HR-ESI-MS was measured on a Bruker maXis high-resolution mass spectrometer. A Shimadzu LC-20 AT (equipped with an SPD-M20A PDA detector) was used for the preparative separations. The ACE 5 PFP-C18 column (250 × 10.0 mm, 5 μm, 12 nm) was used for semi-preparative HPLC separation and the CHIRAL-MD (2)-RH column (250 × 10.0 mm, 5 μm) was used for chiral separation (Guangzhou FLM Scientific Instrument Co., Ltd, Guangzhou, China). The commercial silica gel (SiO2; 200–300 mesh; Qingdao Marine Chemical Plant, Qingdao, China) and Sephadex LH-20 gel (GE Healthcare Bio-Sciences ABSE-751, Uppsala, Sweden) were used for column chromatography. All solvents were of analytical grade (Guangzhou Chemical Regents Company, Ltd., Guangzhou, China). The natural sea salt was purchased from Guangdong Yueyan saltern. The α-glucosidase from Saccharomyces cerevisiae and p-nitrophenyl-α-d-glucopyranoside (p-NPG) used in bioassays were purchased from Sigma-Aldrich (St. Louis, MO, USA).
The method used for the α-glucosidase inhibitory activity assay was based on previously reported literature with slight modification. The pre-reaction mixture consisted of 130 μL of PBS (100 mM, pH 7.0), 30 μL of enzyme (1 U/mL) and 0.5 μL of the test compounds at different concentrations. After incubation at 37 °C for 10 min, 40 μL of pNPG was added and the mixture was further incubated at 37 °C for 15 min. Finally, the absorbance was measured at 405 nm on an automatic microplate reader. […] All experiments were carried out in triplicate.

α-glucosidase = test system: α-glucosidase; design: method as in PMID 24955555; details: previously reported screening; cited from earlier work

α-glucosidase inhibitory effect at a single concentration [1]	IC50 [1] [µM]	SMILES	α-glucosidase inhibitor (qualitative) (α-glucosidase)
weak inhibitory effects	> 100	COc1cc(O)cc(C)c1C(=O)SC [Compound 6, Eurothiocin H]	–
weak inhibitory effects	–	COc1c(C)c(C(=O)SC)c(O)c2c1OC(C(C)(C)O)C2 (stereo not drawn) [Compound 1, Eurothiocin C]	–
–	33.6	CSC(=O)c1c(C)cc(O)c(C/C=C(\C)CO)c1O [Compound 4, Eurothiocin F]	–
–	–	CSC(=O)c1c(C)cc2c(c1O)C[C@H](C(C)(C)O)O2 [Compound 7, eurothiocin A]	potential α-glucosidase inhibitor
–	5.4	CSC(=O)c1c(C)cc2c(c1O)CC(C(C)(C)OC1OC(CO)C(O)C(O)C1O)O2 (stereo not drawn) [Compound 2, Eurothiocin D]	–
–	72.1	CSC(=O)c1c(C)cc(O)c(CCC(C)(C)O)c1O [Compound 5, Eurothiocin G]	–
weak inhibitory effects	> 100	CSC(=O)c1c(C)cc(O)c(CC=C(C)C)c1O [Compound 3, Eurothiocin E]	–
